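48-hour exposure; five concentrations; linearly interpolated endpoints. GI50: concentration for 50% inhibition of growth. Definition used: TGI = concentration required for complete inhibition of growth.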
Key:
Assay in all cases: growth of human tumour cells (NCI), 48 h
RXF 393 renal = tested on: RXF 393 renal
COLO 205 colon = tested on: COLO 205 colon
OVCAR-4 ovarian = tested on: OVCAR-4 ovarian
NCI-H460 lung = tested on: NCI-H460 lung
UACC-62 melanoma = tested on: UACC-62 melanoma
HOP-62 NSCLC = tested on: HOP-62 NSCLC
KM12 colon = tested on: KM12 colon
DU-145 prostate = tested on: DU-145 prostate
HOP-92 NSCLC = tested on: HOP-92 NSCLC
K-562 leukemia = tested on: K-562 leukemia
U251 CNS = tested on: U251 CNS
786-0 renal = tested on: 786-0 renal
MCF7 breast = tested on: MCF7 breast
SNB-75 CNS = tested on: SNB-75 CNS
HT29 colon = tested on: HT29 colon
SF-295 CNS = tested on: SF-295 CNS
OVCAR-3 ovarian = tested on: OVCAR-3 ovarian
EKVX NSCLC = tested on: EKVX NSCLC
SR leukemia = tested on: SR leukemia
RPMI-8226 leukemia = tested on: RPMI-8226 leukemia
UO-31 renal = tested on: UO-31 renal
MALME-3M melanoma = tested on: MALME-3M melanoma
MDA-MB-231 breast = tested on: MDA-MB-231 breast
HCT-15 colon = tested on: HCT-15 colon
ACHN renal = tested on: ACHN renal
HS 578T breast = tested on: HS 578T breast
M14 melanoma = tested on: M14 melanoma
NCI/ADR-RES ovarian = tested on: NCI/ADR-RES ovarian
NCI-H522 lung = tested on: NCI-H522 lung

Compound: Clc1ccc2c(c1)C(Br)c1cc(Cl)cc(Cl)c1-2 (configuration not stated)
- TGI (RXF 393 renal): 86.6 µM
- GI50 (COLO 205 colon): > 100 µM
- TGI (COLO 205 colon): > 100 µM
- GI50 (OVCAR-4 ovarian): 71.5 µM
- TGI (OVCAR-4 ovarian): > 100 µM
- GI50 (NCI-H460 lung): > 100 µM
- TGI (NCI-H460 lung): > 100 µM
- GI50 (UACC-62 melanoma): 39.9 µM
- TGI (UACC-62 melanoma): > 100 µM
- GI50 (HOP-62 NSCLC): > 100 µM
- TGI (HOP-62 NSCLC): > 100 µM
- GI50 (KM12 colon): > 100 µM
- TGI (KM12 colon): > 100 µM
- GI50 (DU-145 prostate): > 100 µM
- TGI (DU-145 prostate): > 100 µM
- GI50 (HOP-92 NSCLC): 12.4 µM
- TGI (HOP-92 NSCLC): > 100 µM
- GI50 (K-562 leukemia): 8.74 µM
- TGI (K-562 leukemia): > 100 µM
- GI50 (U251 CNS): > 100 µM
- TGI (U251 CNS): > 100 µM
- GI50 (786-0 renal): > 100 µM
- TGI (786-0 renal): > 100 µM
- GI50 (MCF7 breast): 20.5 µM
- TGI (MCF7 breast): > 100 µM
- GI50 (SNB-75 CNS): 19 µM
- TGI (SNB-75 CNS): > 100 µM
- GI50 (HT29 colon): > 100 µM
- TGI (HT29 colon): > 100 µM
- GI50 (SF-295 CNS): > 100 µM
- TGI (SF-295 CNS): > 100 µM
- GI50 (OVCAR-3 ovarian): > 100 µM
- TGI (OVCAR-3 ovarian): > 100 µM
- GI50 (EKVX NSCLC): 2.82 µM
- TGI (EKVX NSCLC): > 100 µM
- GI50 (SR leukemia): 4.34 µM
- TGI (SR leukemia): > 100 µM
- GI50 (RPMI-8226 leukemia): 38.9 µM
- TGI (RPMI-8226 leukemia): > 100 µM
- GI50 (UO-31 renal): 67.7 µM
- TGI (UO-31 renal): > 100 µM
- GI50 (MALME-3M melanoma): 3.49 µM
- TGI (MALME-3M melanoma): > 100 µM
- GI50 (MDA-MB-231 breast): 30.8 µM
- TGI (MDA-MB-231 breast): > 100 µM
- GI50 (HCT-15 colon): 74.5 µM
- TGI (HCT-15 colon): > 100 µM
- GI50 (ACHN renal): > 100 µM
- TGI (ACHN renal): > 100 µM
- GI50 (HS 578T breast): > 100 µM
- TGI (HS 578T breast): > 100 µM
- GI50 (M14 melanoma): 3.35 µM
- TGI (M14 melanoma): 35.7 µM
- GI50 (NCI/ADR-RES ovarian): 42.7 µM
- TGI (NCI/ADR-RES ovarian): > 100 µM
- GI50 (NCI-H522 lung): 2.53 µM
- TGI (NCI-H522 lung): > 100 µM

— PubChem BioAssay (NCI)
